Key:
[1] = molecular target: T1, DC-SIGN (Homo sapiens, UniProt Q9NNX6); experiment: Sugar competition, biotinylated DV binding to DC-SIGN-transfected 293T cells; assay type: cell-based; details: flow cytometry
T1 construct: expressed in transfected cells; host or cells: 293T cells
T1 sequence (Q9NNX6 1-404): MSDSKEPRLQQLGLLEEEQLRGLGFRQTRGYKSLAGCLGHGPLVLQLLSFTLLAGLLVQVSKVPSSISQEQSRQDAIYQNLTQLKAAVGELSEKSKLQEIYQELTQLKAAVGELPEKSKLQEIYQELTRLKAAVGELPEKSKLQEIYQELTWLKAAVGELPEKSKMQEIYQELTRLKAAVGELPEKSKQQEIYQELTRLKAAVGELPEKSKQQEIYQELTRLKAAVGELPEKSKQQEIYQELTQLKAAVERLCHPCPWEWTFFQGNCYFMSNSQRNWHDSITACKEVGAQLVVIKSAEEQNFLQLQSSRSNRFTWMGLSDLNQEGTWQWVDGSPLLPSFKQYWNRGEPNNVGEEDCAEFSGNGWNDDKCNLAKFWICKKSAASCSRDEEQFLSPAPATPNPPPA
Procedure: In FIG. 16b, complexes of DV (5×10^6 PFU) with receptor.Fc (5 μg) were immunoprecipitated and detected on westerns with mAb to DV envelope (E) protein. […] FIGS. 16d and 16e show sugar competition assays wherein both DC-SIGN (CLEC4L) and DVLR1/CLEC5A increase DV binding to human 293T cells (FIG. 16d), while addition of sugars inhibits biotinylated DV binding to DC-SIGN- (left panel) or DLVR1/CLEC5A- (right panel) transfected 293T cells in a dose-dependent manner as determined by flow cytometry (FIG. 16e). According to FIG. 16e, MFI represents mean fluorescence intensity. Units (U) for monosaccharide (mannose and fucose) and polysaccharide (mannan) are mM and mg/ml, respectively. […] Data are expressed as the mean±s.d. of three independent experiments. Two-tailed, Student's t-tests were performed.
There are two conserved N-linked glycosylation sites at Asn-67 and Asn-153 of E protein (Pokidysheva, E. et al., Cell 124:485-93 (2006)), and the attached glycans (with terminal fucose and mannose) have been implicated in cellular attachment and viral entry (Modis, Y. et al., J. Virol. 79:1223-1231 (2005)). To investigate the participation of glycans in the association of DVLR1/CLEC5A with DV, virions were incubated with fucose, mannose, or mannan; where the last two sugars are the ligands for DC-SIGN (Mitchell et al., J. Biol. Chem. 276: 28939-28945 ([…])).

[2] = molecular target: T2, Dectin-1.Fc (Homo sapiens, UniProt Q9BXN2); experiment: Immunosorbent dot binding assay with Dectin-1.Fc
T2 construct: The extracellular domains of lectin receptors, TREMs and TLTs were cloned by the reverse-transcriptase polymerase chain reaction (RT-PCR); made in house; host or cells: 293-F (FreeStyle 293) cells
T2 sequence (Q9BXN2 66-247 limits assumed): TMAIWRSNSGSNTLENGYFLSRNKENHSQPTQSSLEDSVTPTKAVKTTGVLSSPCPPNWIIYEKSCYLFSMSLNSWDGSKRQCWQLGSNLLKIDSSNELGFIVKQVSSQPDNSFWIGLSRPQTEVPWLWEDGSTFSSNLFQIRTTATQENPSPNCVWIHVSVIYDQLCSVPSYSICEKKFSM

[3] = molecular target: T3, KCR.Fc (Mus musculus, UniProt P70194); experiment: Immunosorbent dot binding assay with KCR.Fc; details: polysaccharide immobilized on PVDF membrane; receptor.Fc 1 μg/mL
T3 construct: the extracellular domains of DVLR1/CLEC5A (MDL-1), Dectin-1, KCR, and DC-SIGN (as a positive control) were fused to the Fc portion of human IgG1; made in house; host or cells: 293-F (FreeStyle 293) cells
T3 sequence (P70194 70-548 limits assumed): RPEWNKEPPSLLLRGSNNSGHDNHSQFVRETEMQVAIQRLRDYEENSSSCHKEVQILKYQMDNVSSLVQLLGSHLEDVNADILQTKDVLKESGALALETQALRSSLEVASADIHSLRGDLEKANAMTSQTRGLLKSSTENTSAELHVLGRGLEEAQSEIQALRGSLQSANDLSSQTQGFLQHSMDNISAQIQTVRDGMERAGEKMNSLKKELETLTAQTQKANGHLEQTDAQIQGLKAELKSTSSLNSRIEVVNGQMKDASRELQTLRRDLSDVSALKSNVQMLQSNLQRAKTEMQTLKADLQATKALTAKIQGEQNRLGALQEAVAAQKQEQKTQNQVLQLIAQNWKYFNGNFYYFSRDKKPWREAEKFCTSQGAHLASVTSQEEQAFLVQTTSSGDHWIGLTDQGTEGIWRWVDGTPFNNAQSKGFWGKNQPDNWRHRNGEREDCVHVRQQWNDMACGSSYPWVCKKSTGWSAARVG

[4] = molecular target: T4, TLT-2.Fc (Homo sapiens, UniProt Q5T2D2); experiment: Immunosorbent dot binding assay with TLT-2.Fc; details: polysaccharide immobilized on PVDF membrane; receptor.Fc 1 μg/mL
T4 construct: The extracellular domains of lectin receptors, TREMs and TLTs were cloned by the reverse-transcriptase polymerase chain reaction (RT-PCR); made in house; host or cells: 293-F (FreeStyle 293) cells
T4 sequence (Q5T2D2 19-268 limits assumed): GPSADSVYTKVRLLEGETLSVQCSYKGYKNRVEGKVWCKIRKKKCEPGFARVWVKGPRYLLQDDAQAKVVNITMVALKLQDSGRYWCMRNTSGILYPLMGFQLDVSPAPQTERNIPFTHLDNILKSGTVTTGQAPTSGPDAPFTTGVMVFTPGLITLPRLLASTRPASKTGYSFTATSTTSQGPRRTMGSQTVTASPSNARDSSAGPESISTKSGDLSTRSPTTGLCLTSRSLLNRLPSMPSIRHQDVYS

[5] = molecular target: T5, DC-SIGNR.Fc (Homo sapiens, UniProt Q9H2X3); experiment: Immunosorbent dot binding assay with DC-SIGNR.Fc; details: polysaccharide immobilized on PVDF membrane; receptor.Fc 1 μg/mL
T5 construct: The extracellular domains of lectin receptors, TREMs and TLTs were cloned by the reverse-transcriptase polymerase chain reaction (RT-PCR); made in house; host or cells: 293-F (FreeStyle 293) cells
T5 sequence (Q9H2X3 71-399): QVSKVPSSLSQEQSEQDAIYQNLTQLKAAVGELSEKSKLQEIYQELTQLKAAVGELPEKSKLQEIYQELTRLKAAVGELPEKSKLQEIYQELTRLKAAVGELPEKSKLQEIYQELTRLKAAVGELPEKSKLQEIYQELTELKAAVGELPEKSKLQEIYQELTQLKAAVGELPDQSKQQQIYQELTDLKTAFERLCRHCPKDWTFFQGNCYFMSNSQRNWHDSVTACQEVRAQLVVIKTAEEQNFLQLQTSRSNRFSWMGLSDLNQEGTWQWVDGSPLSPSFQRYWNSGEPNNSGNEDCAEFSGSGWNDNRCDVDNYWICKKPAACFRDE

Substance | inhibition of the DC-SIGN-DV interaction [1] | inhibition of the interaction between Dectin-1.Fc and F3 ([2]; competitor 0.1 μg-1000 μg, or EDTA 10 mM in TBST) | interaction with Dectin-1.Fc in dot-binding assay ([2]; polysaccharide immobilized on PVDF membrane, receptor.Fc 1 μg/mL) | interaction with KCR.Fc in dot-binding assay [3] | interaction with TLT-2.Fc in dot-binding assay [4] | interaction with DC-SIGNR.Fc in dot-binding assay [5]
mannan | dose-dependent inhibition | – | – | – | – | –
β-1,3-glucan [b-glucan] | – | inhibited | can bind | only Dectin-1.Fc can bind | only Dectin-1.Fc can bind | only Dectin-1.Fc can bind
